The target of experiment [1] is T1, USP11 (Homo sapiens, UniProt P51784, Q402E/Y833E).
T1 construct: biotin-labelled for BLI
The experiment can be described thus: bio-layer interferometry (Octet), biotinylated protein on SSA sensors, […] global fit. The experiment is classed as binding.

In experiment [2] the target is T2, USP11 (Homo sapiens, UniProt P51784).
T2 construct: biotin-labelled for BLI
The experiment is described as above. To be noted: PBS-T, 30 °C; RSL3 6.81-218 μM; unreliable (KD above the highest concentration tested); protein refolded from 8 M urea. The format is binding.

T1 sequence (P51784 whole entry Q402E/Y833E): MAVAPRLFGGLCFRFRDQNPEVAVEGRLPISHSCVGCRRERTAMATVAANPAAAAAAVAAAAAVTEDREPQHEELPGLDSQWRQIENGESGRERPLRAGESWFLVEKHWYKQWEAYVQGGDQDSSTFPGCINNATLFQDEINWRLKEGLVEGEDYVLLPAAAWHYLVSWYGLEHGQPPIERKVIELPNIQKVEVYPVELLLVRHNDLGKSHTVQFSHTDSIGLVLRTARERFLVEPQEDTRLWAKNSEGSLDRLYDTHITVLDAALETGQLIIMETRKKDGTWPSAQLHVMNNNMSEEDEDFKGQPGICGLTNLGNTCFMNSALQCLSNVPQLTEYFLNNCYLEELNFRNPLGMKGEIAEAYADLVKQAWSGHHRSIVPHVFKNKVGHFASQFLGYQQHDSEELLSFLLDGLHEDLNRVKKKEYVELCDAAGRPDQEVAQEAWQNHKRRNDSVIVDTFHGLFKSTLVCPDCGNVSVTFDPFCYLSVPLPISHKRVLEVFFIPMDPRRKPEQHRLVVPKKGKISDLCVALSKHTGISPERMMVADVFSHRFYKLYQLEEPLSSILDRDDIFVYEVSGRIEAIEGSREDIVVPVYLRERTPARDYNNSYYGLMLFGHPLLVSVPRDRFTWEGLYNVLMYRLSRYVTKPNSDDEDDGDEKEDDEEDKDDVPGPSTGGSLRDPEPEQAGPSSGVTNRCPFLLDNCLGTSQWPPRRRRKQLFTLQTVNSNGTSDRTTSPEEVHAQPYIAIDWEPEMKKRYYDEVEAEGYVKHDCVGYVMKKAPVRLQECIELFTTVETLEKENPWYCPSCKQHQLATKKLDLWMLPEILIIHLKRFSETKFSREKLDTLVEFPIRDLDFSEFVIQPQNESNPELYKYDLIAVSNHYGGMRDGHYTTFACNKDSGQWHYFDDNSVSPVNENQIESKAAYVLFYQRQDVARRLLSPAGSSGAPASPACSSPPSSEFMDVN
T2 sequence (P51784 whole entry): as the sequence (P51784 whole entry Q402E/Y833E) above, with E402Q, E833Y counted along it

For orientation: Kd means the equilibrium constant for the complex coming apart. The KD is the free concentration of one partner at which half of the binding sites on the other are occupied at equilibrium, for simple one-to-one binding. High values mean a looser complex, low ones a tighter complex. On USP11 [1], `COC(=O)c1ccc([C@H]2c3[nH]c4ccccc4c3C[C@H](C(=O)OC)N2C(=O)CCl)cc1` [RSL3] yielded a Kd of 190 µM. Also, the KD on USP11 [2] is 340 µM.
